Results taken from the NIST ThermoML archive (doi:10.1016/j.jct.2005.05.004).

How the values were obtained:
[1] = 298.15 K; 101.33 kPa; Liquid; Vibrating tube method
[2] = refractive index (Na D-line) (dimensionless); conditions: 298.15 K; 101.33 kPa; Liquid
[3] = xn = mol fraction of the nth substance listed; conditions: 298.15 K, 101.32 kPa, Liquid, Vibrating tube method
[4] = refractive index (Na D-line) (dimensionless); xn = mol fraction of the nth substance listed; conditions: 298.15 K, 101.32 kPa, Liquid

CCCO [propan-1-ol]
Conditions	mass density [kg/m3]	refractive index
[1]	799.69	–
[2]	–	1.3829

Cc1ccccc1 [toluene] + CO
Conditions	mass density, [3] [kg/m3]	refractive index, [4]
x1 = 0.0491	797.2	1.3464
x1 = 0.1058	806.2	1.366
x1 = 0.199	818.1	1.3921
x1 = 0.3361	831.1	1.4215
x1 = 0.4097	836.6	1.4337
x1 = 0.4501	839.2	1.4402
x1 = 0.5024	842.4	1.4478
x1 = 0.5393	844.4	1.4527
x1 = 0.5818	846.6	1.4579
x1 = 0.6961	851.7	1.47
x1 = 0.7764	854.8	1.4778
x1 = 0.8695	858	1.485
x1 = 0.9416	860.2	1.4904

CCI [iodoethane] + Cc1ccccc1
Conditions	mass density, [3] [kg/m3]	refractive index, [4]
x2 = 0.1279	1749.5	1.5056
x2 = 0.2014	1655.8	1.5038
x2 = 0.3085	1526.9	1.5012
x2 = 0.3955	1428.3	1.5002
x2 = 0.4476	1371.7	1.499
x2 = 0.4678	1350.2	1.4992
x2 = 0.4961	1320.5	1.4983
x2 = 0.5735	1241.7	1.4974
x2 = 0.6009	1214.7	1.4968
x2 = 0.6974	1122.5	1.4959
x2 = 0.7276	1094.6	1.4957
x2 = 0.7984	1031	1.4948
x2 = 0.8866	954.9	1.4943
x2 = 0.9322	916.9	1.494

CCI [iodoethane] + CO
Conditions	mass density, [3] [kg/m3]	refractive index, [4]
x2 = 0.1198	1843.6	1.4964
x2 = 0.1399	1829.8	1.4938
x2 = 0.2068	1783	1.4869
x2 = 0.26	1743.6	1.4787
x2 = 0.4066	1622.2	1.4578
x2 = 0.4234	1606.9	1.4553
x2 = 0.4808	1552.1	1.4451
x2 = 0.4954	1537.5	1.4436
x2 = 0.5699	1458.5	1.4302
x2 = 0.6771	1329.5	1.4084
x2 = 0.7989	1156.8	1.3821
x2 = 0.9094	969.6	1.3534

Cc1ccccc1 [toluene] + CCCO
Conditions	mass density, [3] [kg/m3]	refractive index, [4]
x1 = 0.0609	805.41	1.3918
x1 = 0.0969	808.53	1.397
x1 = 0.1939	816.4	1.4108
x1 = 0.3036	824.3	1.4249
x1 = 0.3965	830.4	1.4349
x1 = 0.4988	836.58	1.4469
x1 = 0.5524	839.64	1.4509
x1 = 0.5932	841.82	1.4533
x1 = 0.692	847.02	1.466
x1 = 0.77	851.01	1.473
x1 = 0.9274	858.78	1.4873
x1 = 0.9343	859.08	1.488

CCO [ethanol]
Conditions	mass density [kg/m3]	refractive index
[1]	785.32	–
[2]	–	1.3592

CO [methanol]
Conditions	mass density [kg/m3]	refractive index
[1]	787.98	–
[2]	–	1.3262

CCI [iodoethane] + CCO
Conditions	mass density, [3] [kg/m3]	refractive index, [4]
x2 = 0.0481	1880.86	1.503
x2 = 0.0942	1839.5	1.4971
x2 = 0.2302	1712.7	1.479
x2 = 0.29	1654.4	1.4701
x2 = 0.3989	1543.6	1.4535
x2 = 0.4889	1447.12	1.442
x2 = 0.6035	1316.7	1.4241
x2 = 0.687	1215.7	1.4093
x2 = 0.7935	1078.8	1.3929
x2 = 0.8994	933.27	1.3761
x2 = 0.9522	856.7	1.3675

CCI [iodoethane]
Conditions	mass density [kg/m3]	refractive index
[1]	1923.75	–
[2]	–	1.5095

Cc1ccccc1 [toluene] + CCO
Conditions	mass density, [3] [kg/m3]	refractive index, [4]
x1 = 0.0476	792.25	1.3699
x1 = 0.1205	801.71	1.385
x1 = 0.1948	810	1.3993
x1 = 0.2994	820.14	1.4163
x1 = 0.3992	828.34	1.4311
x1 = 0.4884	834.71	1.443
x1 = 0.5577	839.3	1.4518
x1 = 0.5994	841.81	1.4565
x1 = 0.7159	848.36	1.4682
x1 = 0.7646	850.92	1.4732
x1 = 0.8915	857.06	1.485
x1 = 0.8917	857.09	1.485

CCI [iodoethane] + CCCO
Conditions	mass density, [3] [kg/m3]	refractive index, [4]
x2 = 0.0332	1887.25	1.505
x2 = 0.0469	1872.23	1.503
x2 = 0.0528	1865.57	1.502
x2 = 0.2862	1611.62	1.4688
x2 = 0.3861	1501.9	1.4567
x2 = 0.4714	1407.06	1.447
x2 = 0.5981	1264.7	1.4299
x2 = 0.6984	1150.74	1.418
x2 = 0.7894	1046.25	1.4077
x2 = 0.8728	949.54	1.397
x2 = 0.9101	905.96	1.393

Cc1ccccc1 [toluene]
Conditions	mass density [kg/m3]	refractive index
[1]	862.28	–
[2]	–	1.4938
